In brackets after ≈: the same amount, converted by molar mass.
Tests used:
Klebsiella pneumoniae = assay: Agar well diffusion method; settings: for zone of inhibition at 600 µg/mL: 24 h; for zone of inhibition: compound solution 0.6 mg/mL, 40 μL per well, 24 h at 37 °C
Description: (§2) Antibacterial activity of compounds was determined by agar well diffusion method[42]. Antibacterial activity of different compounds was tested against seven clinical pathogens (Klebsiella pneumonia, Escherichia coli, Xanthomonas, S. aureus, Salmonella, P. aeruginosa and S. epidermitis). The nutrient agar medium was prepared by dissolving 6 g agar nutrient powder in 250 mL distilled water. The media was autoclaved and poured into pre-labeled petri plates under sterile condition. Then rinsed these plates with bacterial suspension before solidification. Allowed it to solidify for 15 min. Compound solution of 0.6 mg/mL was used. Cefixime with 1 mg/1 mL was used as positive control whereas DMSO was used as negative control. After solidification made wells of 6 mm using sterile cork borer. Each well was sealed with 20 μL of agar. After sealing 40 μL of each compound solution was added in well. The petri plates were sealed by para-film and kept in incubator for 24 h at 37 °C. The experiment was run in triplicates. The zone of inhibition of bacterial growth was measured with scale in mm.

[1] = DPPH free radical scavenging assay; settings: for IC50 in DPPH assay: calculated by linear regression equation; for antioxidant potential (free radical scavenging) in DPPH assay: at 200 µg/mL
Description: The DPPH assay was performed according to the protocol of Ghasemi et al.[40] with little modifications. For DPPH solution, 3 mg of DPPH powder was dissolved in 100 mL methanol. […] Different serial dilutions (25, 50, 100, and 200 μg/mL) were prepared. The 3 mL DPPH methanolic solution was added to 400 μL compounds methanolic solution. The mixture was continuously shaken and stored at room temperature under shade for exactly 30 min. The absorbance of reaction mixture was measured at 515 nm spectrophotometrically. […] The experiment was repeated three times and percentage inhibition was calculated as follows.

[2] = ABTS free radical scavenging assay; parameters: IC50 values in ABTS assay (Table 2): unit not given beside the values; settings: for free radical scavenging potential in ABTS assay: at 200 µg/mL; for IC50 value in ABTS assay / IC50 values in ABTS assay (Table 2): calculated by linear regression equation; for IC50 values in ABTS assay (Table 2): unit not given
E. coli = assay: Agar well diffusion method; format: cell-based, Escherichia coli; settings: compound solution 0.6 mg/mL, 40 μL per well, 24 h at 37 °C
Description: (§1) Allowed it to solidify for 15 min. […] The experiment was run in triplicates.

brine shrimp nauplii = assay: Brine shrimp lethality assay (BSLA); settings: 24 h; for mortality at 200 µg/mL: read-out: mortality rate / cytotoxic effect in brine shrimp lethality assay; for mortality rate / cytotoxic effect in brine shrimp lethality assay: at highest 200 µg/mL concentration
Salmonella = assay: Agar well diffusion method; format: cell-based; settings: compound solution 0.6 mg/mL, 40 μL per well, 24 h at 37 °C
Description: as §1

P. aeruginosa = assay: Agar well diffusion method; format: cell-based; settings: compound solution 0.6 mg/mL, 40 μL per well, 24 h at 37 °C
Description: as §1

Xanthomonas = assay: Agar well diffusion method; format: cell-based; settings: for zone of inhibition: compound solution 0.6 mg/mL, 40 μL per well, 24 h at 37 °C
Description: as §2

S. aureus = assay: Agar well diffusion method; format: cell-based; settings: for zone of inhibition: S. aureus, compound solution 0.6 mg/mL, 40 μL per well, 24 h at 37 °C
Description: as §1

Row | Molecule | IC50 in DPPH assay [1] [µg/mL] | free radical scavenging potential in ABTS assay [2] [%] | IC50 value in ABTS assay [2] [µg/mL] | IC50 values in ABTS assay (Table 2) [2] | mortality at 200 µg/mL (brine shrimp nauplii) [%] | also measured
1 | O=c1c2cc(O)c(O)cc2oc2cc(O)c([C@@H]3O[C@H](CO)[C@@H](O)[C@H](O)[C@H]3O)c(O)c12 [Mangiferrin] | 110.4 (≈ 261 µM) | 73 | 110.33 (≈ 261 µM) | 110.3 | 50 | zone of inhibition at 600 µg/mL (Klebsiella pneumoniae): 32 mm; zone of inhibition at 600 µg/mL (E. coli; Escherichia coli): 15 mm; zone of inhibition at 600 µg/mL (Salmonella): 28 mm; zone of inhibition at 600 µg/mL (P. aeruginosa; Pseudomonas aeruginosa): 10 mm
2 | O=C(c1ccc(O)cc1)c1c(O)cc(O)c([C@@H]2O[C@H](CO)[C@@H](O)[C@H](O)[C@H]2O)c1O [Irriflophenone-3-C-β-D-glucopyranoside] | 125 (≈ 306 µM) | 71 | 112.63 (≈ 276 µM) | 112.6 |  | zone of inhibition (Klebsiella pneumoniae): 30 mm; zone of inhibition (E. coli): 34 mm; zone of inhibition (Xanthomonas): 19 mm; mortality rate / cytotoxic effect in brine shrimp lethality assay (brine shrimp nauplii): 65%; zone of inhibition (S. aureus): 28 mm; zone of inhibition (Salmonella): 31 mm; zone of inhibition (P. aeruginosa): 8 mm
3 | COc1ccc2c(c1)[nH]c1c(C)nccc12 [Harmine] |  |  |  |  | 65 | 
4 | CN1CCC[C@H]1c1cccnc1 [Nicotine, reference compound] |  |  |  |  | 100 | LD50 value in brine shrimp lethality assay (brine shrimp nauplii): 30.69 µg/mL
5 | O=c1c2cc(O)c(O)cc2oc2c([C@@H]3O[C@H](CO)[C@@H](O)[C@H](O)[C@H]3O)c(O)cc(O)c12 [Isomangiferrin] | 93.86 (≈ 222 µM) | 62 | 124.19 (≈ 294 µM) | 124.2 |  | zone of inhibition (Klebsiella pneumoniae): 28 mm; antioxidant potential (free radical scavenging) in DPPH assay [1]: 78.32%; IC50 in DPPH assay ([1]; listed as isomangiferrin): 93.85 µg/mL (≈ 222 µM); mortality rate / cytotoxic effect in brine shrimp lethality assay (brine shrimp nauplii): 55%; zone of inhibition (S. aureus): 32 mm; zone of inhibition (P. aeruginosa): 5 mm
6 | Quercitin-3-O rhamnoside [Quercitin-3-O-rhamnoside] | 185.27 |  |  |  |  | zone of inhibition (Klebsiella pneumoniae): 22 mm; IC50 in DPPH assay ([1]; listed as Quercetin-3-O- rahmnoside): 185.3 µg/mL
7 | O=c1c(O[C@@H]2O[C@H](CO)[C@@H](O)[C@H](O)[C@H]2O)c(-c2ccc(O)cc2)oc2cc(O)cc(O)c12 [Astragalin] | 100.9 (≈ 225 µM) | 78 |  | 49.41 | 55 | zone of inhibition at 600 µg/mL (Klebsiella pneumoniae): 26 mm
8 | O=C1O[C@H]([C@@H](O)CO)C(O)=C1O [Ascorbic acid, reference compound] | 97.065 (≈ 551 µM) | 90 | 14.77 (≈ 83.9 µM) | 14.77 |  | 
9 | O=c1c2ccccc2nc2n1CC[C@@H]2O [PH-HM 17, vasicinone] | 124.9 (≈ 618 µM) |  |  | 101.6 |  | zone of inhibition (Xanthomonas): 22 mm
10 | COc1ccc2c3c([nH]c2c1)C(C)=NCC3 [Harmaline] | 94.84 (≈ 443 µM) | 80.71 | 15.79 (≈ 73.7 µM) | 15.79 | 80 | zone of inhibition at 600 µg/mL (Xanthomonas; 24 h): 23 mm
11 | O[C@H]1CCN2Cc3ccccc3N=C12 [Vasicine] | 137.7 (≈ 732 µM) | 69 | 114.82 (≈ 610 µM) | 114.8 | 55 | zone of inhibition at 600 µg/mL (S. aureus; Staphylococcus aureus, 24 h): 22 mm
12 | O=C(/C=C/c1ccc(O)cc1)OC[C@H]1O[C@@H](Oc2c(-c3ccc(O)cc3)oc3cc(O)cc(O)c3c2=O)[C@H](O)[C@@H](O)[C@@H]1O [Tiliroside] | 78.77 (≈ 132 µM) | 70 | 101.64 (≈ 171 µM) | 67.53 | 95 | zone of inhibition at 600 µg/mL (Klebsiella pneumoniae): 24 mm; antioxidant potential (free radical scavenging) in DPPH assay [1]: 77.77%; IC50 in DPPH assay ([1]; listed as tiliroside): 78.77 µg/mL (≈ 132 µM); LD50 value in brine shrimp lethality assay (brine shrimp nauplii): 73.59 µg/mL

— PMC10866962, “Molecular docking of bioactive compounds extracted and purified from selected medicinal plant species against covid-19 proteins and in vitro evaluation” (Scientific Reports, 2024)
